Results: patent US20180186753A1 (published 2018)
“And” between values parts separate entries of the source, which are not always exact repeats. Equal values may be shown once.

Row | SMILES | melting point
1 | C=CC(=O)Nc1c[nH]nc1Cl | 182 °C (dec.)
2 | C=CC(=O)N(CC)c1c[nH]nc1Cl | 156 to 160 °C
3 | CCN(C(=O)CCSC(C)=O)c1c[nH]nc1Cl | 98 to 99 °C
4 | CC(=O)SCCC(=O)Nc1c[nH]nc1Cl | 140 to 143 °C

Continued, values first:

Row | melting point | SMILES
5 | 163 to 166 °C and 168 to 171 °C | CC(=O)SCCC(=O)Nc1cn(-c2cccnc2)nc1Cl
6 | 148 to 153 °C | C=CC(=O)Nc1cn(-c2cccnc2)nc1Cl
7 | 70 to 73 °C | CCN(C(=O)CCS)c1cn(-c2cccnc2)nc1Cl
